Here are results for 2 compounds from paper PMC9501633, “Synthesis, Characterisation and Mechanism of Action of Anticancer 3-Fluoroazetidin-2-ones” (Pharmaceuticals, 2022).

Data set [1] concerns purified bovine brain tubulin. Set-up: method as in PMID 31954879. To be noted: 10 μM; cited from earlier work.
The nature of data set [2]: Stability in phosphate buffers (HPLC). Type of data set: physicochemical. As to the method:
The β-lactam ring is known to undergo hydrolysis/degradation depending on the substituent type on the ring. For example, degradation of monocyclic β-lactam antibiotic aztreonam increased with elevated humidity, temperature and acidic pH buffer. Ezetimibe, a monocyclic β-lactam drug used to reduce blood cholesterol, undergoes degradation and hydrolysis more rapidly in neutral and basic pH conditions than in acidic pH [71]. The stability of representative compounds 33 and 39 was also determined at pH 4, pH 7.4 (plasma) and pH 9 (intestine) by HPLC. […] The electron-withdrawing effect of the 3-fluoro substituent may result in decreasing stability of the β-lactam ring in response to acid hydrolysis.
The stability study for compounds 33 and 39 was performed using analytical HPLC (Symmetry column (C18, […], 4.6 × 150 mm), dual wavelength absorbance detector (Waters 2487), binary HPLC pump (Waters 1525) and autosampler (Waters 717 plus)) with mobile phase acetonitrile (70%)/water (30%), flow rate 1 mL/min over 15 min and detection at λ 254 nm. Stock solutions of compounds 33 and 39 (1 mg/mL in mobile phase) were used. Dilutions of 0.5 mg/mL, 0.25 mg/mL, 0.125 mg/mL, 0.0625 mg/mL, 0.03125 mg/mL, 0.015625 mg/mL and 0.0078 mg/mL were prepared for the calibration curve. (i) Stability of 33 and 39 in phosphate buffers: The phosphate buffers were prepared in accordance with the British Pharmacopoeia 2020 at pH values 4, 7.4 and 9. Stock solution, 300 µL (1 mg/mL ACN), was added to a vial containing buffer (9.7 mL), mixed and pre-heated to 37 °C. 1 mL of the solution was introduced into an HPLC vial. Samples (10 µL) were injected and analysed at time intervals of t = 0 min, 5 min, 30 min, 60 min and hourly for 24 h. The analysis was performed in triplicate. (ii) Thermal stability: Compounds 33 and 39 (1 mL stock solution) were each placed in a vial for 4 h at 60 °C on a heating block. The sample was then cooled, diluted with acetonitrile and analysed by HPLC. (iii) Photostability study: Compounds 33 and 39 (stock solution, 1 mL) were placed in a vial, exposed to UV light for 4 h and then analysed by HPLC. (iv) Stability in acidic conditions: HCl (0.1 M, 0.2 mL) was added to stock solutions (0.8 mL) of 33 and 39 in a vial. The vial was vortexed and retained at room temperature. A sample was neutralised with NaOH (0.1 M, 0.2 mL) each hour for 4 h and then analysed by HPLC. (v) Stability of 33 and 39 in basic (alkaline) conditions: NaOH (0.1 M, 0.2 mL) was added to stock solution (0.8 mL) in a vial. The vial was vortexed and retained at room temperature. A sample was neutralised with HCl (0.1 M, 0.2 mL) every hour for 4 h then analysed by HPLC. (vi) Stability of 33 and 39 in oxidising conditions: H2O2 (3%, 0.2 mL) was added to the stock solution (0.8 mL). The vial was vortexed to obtain a homogeneous mixture and retained at room temperature, and a sample was analysed by HPLC every hour for 4 h.

The next data set has as its system Bcl-2. The experiment in a line: Western blot of apoptosis regulatory proteins in MCF-7 cells. Type of data set: cell-based, human. As to conditions: MCF-7, 0.05, 0.1 and 0.5 μM, 48 and 72 h, dose-dependent. As to the method: (§1) The selective Bcl-2 inhibitor venetoclax was developed as a BH3-mimetic that binds to the pro-survival protein Bcl-2 and inhibits its ability to bind Bax or Bak. Venetoclax has been approved for clinical use in the treatment of chronic lymphocytic leukaemia (CLL). Compound 33 induced downregulation of Bcl-2 expression with corresponding upregulation of Bax at 48 h in a dose-dependent manner. This effect was further increased at 72 h.
(§2) Western blot analysis was performed according to the protocols we previously described. MCF-7 cells were seeded at a density of 1 × 10^5 cells/flask in T25 flasks. After 48 h, whole cell lysates were prepared from untreated cells or cells treated with vehicle control (EtOH, 0.1% v/v) or cells treated with compound 33 (0.05 μM, 0.1 μM and 0.5 μM). MCF-7 cells were harvested in RIPA buffer which was supplemented with protease inhibitors (Roche Diagnostics, Rotkreuz, Switzerland), phosphatase inhibitor cocktail 2 (Sigma-Aldrich, Arklow, Ireland) and phosphatase inhibitor cocktail 3 (Sigma-Aldrich, Arklow, Ireland). Equal amounts of protein (as determined by a BCA assay) were resolved by SDS-PAGE (12%) followed by transfer to PVDF membranes. […] Proteins were detected using enhanced chemiluminescent Western blot detection (Clarity Western ECL substrate) (Bio-Rad) on the ChemiDoc MP System (Bio-Rad). […]
On the technique in general: Immunoblotting shows a protein as a band on a membrane.

A further data set relates to Bax. The description is as above. Type of data set: cell-based, human. As to conditions: MCF-7, 0.05, 0.1 and 0.5 μM, 48 and 72 h, dose-dependent. As to the method: as §1, §2

Regarding `COc1ccc(/C=C\c2cc(OC)c(OC)c(OC)c2)cc1O` [CA-4, combretastatin A-4, reference compound], in data set [1], the “reduction in the Vmax of tubulin polymerisation” value is reported as 6.3 fold.

`COc1ccc(C2C(F)C(=O)N2c2cc(OC)c(OC)c(OC)c2)cc1F` (stereo not shown) [Compound 33, 3-Fluoro-4-(3-fluoro-4-methoxyphenyl)-1-(3,4,5-trimethoxyphenyl)azetidin-2-one]: the share remaining (commonly the share of the starting amount still present when the sample was taken) at 24 h, 0.03 mg/mL in data set [2] (phosphate buffer pH 4, 37 °C) came out at 76%; in data set [2] (phosphate buffer pH 7.4, 37 °C), 87%; in data set [2] (phosphate buffer pH 9, 37 °C), 26%. In addition, in data set [2] (phosphate buffer, pH 11 (as printed in Table S7)), the fraction remaining at 0.03 mg/mL was 26%. Further, the Bcl-2 expression entry with Bcl-2 is recorded as “downregulation”. For the same compound, the Bax expression result in the data set with Bax is recorded as “upregulation”.
